Experimental data published in US6355799B1, “Substituted benzene compounds, process for their preparation, and herbicidal and defoliant compositions containing them” (ISK Americas Incorporated, priority 1997, dated 2002).

Key:
Type in all cases: in vivo
[1] = test system: barnyardgrass (Echinochloa crus-galli, ECHCG); test: Post-emerge test, greenhouse herbicide activity screening; conditions: post-emerge, 14 days after application, rating scale 0-100
Procedure, shortened: (§1)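 Each test used a mechanized track sprayer delivering 187 l/ha of acetone solution at 15–1000 g ai/ha. Post-emerge foliage at 2–3 leaves was treated with added 0.25% v/v non-ionic surfactant and bottom-watered only. Injury was assessed on day 14, where 100 means total kill.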

[2] = test system: lambsquarters (Chenopodium album, CHEAL); test: as above; conditions: post-emerge, 14 days after application, rating scale 0-100
Procedure, shortened: as §1

[3] = test system: velvetleaf (Abutilon theophrasti, ABUTH); test: as above; conditions: post-emerge, 14 days after application, rating scale 0-100
Procedure, shortened: as §1

[4] = test system: sicklepod (Cassia obtusifolia, CASOB); test: as above; conditions: post-emerge, 14 days after application, rating scale 0-100
Procedure, shortened: as §1

[5] = test system: ivyleaf morningglory (Ipomoea hederacea, IPOHE); test: as above; conditions: post-emerge, 14 days after application, rating scale 0-100
Procedure, shortened: as §1

[6] = test system: green foxtail (Setaria viridis, SETVI); test: as above; conditions: post-emerge, 14 days after application, rating scale 0-100
Procedure, shortened: as §1

[7] = test system: large crabgrass (Digitaria sanguinalis, DIGSA); test: as above; conditions: post-emerge, 14 days after application, rating scale 0-100
Procedure, shortened: as §1

[8] = test system: johnsongrass (Sorghum halepense, SORHA); test: as above; conditions: post-emerge, 14 days after application, rating scale 0-100
Procedure, shortened: as §1

[9] = test system: redroot pigweed (Amaranthus retroflexus, AMARE); test: as above; conditions: post-emerge, 14 days after application
Procedure, shortened: as §1

[10] = test system: barnyardgrass (Echinochloa crus-galli, ECHCG); test: Pre-emerge test, greenhouse herbicide activity screening; conditions: for phytotoxicity rating ECHCG: pre-emerge, 14 days after application, rating scale 0-100; for Pre-emerge Herbicidal Activity, phytotoxicity rating (0-100), ECHCG: rated 14 days after application, 0 = no damage, 100 = complete death
Procedure, shortened: (§2)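 Visual ratings on a 0-100 scale (0 no damage, 100 all plants dead) were taken at 14 days after treatment. Rates of 15-1000 g ai/ha in acetone, 187 l/ha, were sprayed onto soil one day after planting (pre-emerge) or onto 2-3 leaf plants with 0.25% v/v surfactant (post-emerge).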

[11] = test system: lambsquarters (Chenopodium album, CHEAL); test: as above; conditions: for phytotoxicity rating CHEAL: pre-emerge, 14 days after application, rating scale 0-100; for Pre-emerge Herbicidal Activity, phytotoxicity rating (0-100), CHEAL: rated 14 days after application, 0 = no damage, 100 = complete death
Procedure, shortened: as §2

[12] = test system: velvetleaf (Abutilon theophrasti, ABUTH); test: as above; conditions: for phytotoxicity rating ABUTH: pre-emerge, 14 days after application, rating scale 0-100; for Pre-emerge Herbicidal Activity, phytotoxicity rating (0-100), ABUTH: rated 14 days after application, 0 = no damage, 100 = complete death
Procedure, shortened: as §2

[13] = test system: sicklepod (Cassia obtusifolia, CASOB); test: as above; conditions: for phytotoxicity rating CASOB: pre-emerge, 14 days after application, rating scale 0-100; for Pre-emerge Herbicidal Activity, phytotoxicity rating (0-100), CASOB: rated 14 days after application, 0 = no damage, 100 = complete death
Procedure, shortened: as §2

[14] = test system: ivyleaf morningglory (Ipomoea hederacea, IPOHE); test: as above; conditions: for phytotoxicity rating IPOHE: pre-emerge, 14 days after application, rating scale 0-100; for Pre-emerge Herbicidal Activity, phytotoxicity rating (0-100), IPOHE: rated 14 days after application, 0 = no damage, 100 = complete death
Procedure, shortened: as §2

[15] = test system: green foxtail (Setaria viridis, SETVI); test: as above; conditions: for phytotoxicity rating SETVI: pre-emerge, 14 days after application, rating scale 0-100; for Pre-emerge Herbicidal Activity, phytotoxicity rating (0-100), SETVI: rated 14 days after application, 0 = no damage, 100 = complete death
Procedure, shortened: as §2

[16] = test system: large crabgrass (Digitaria sanguinalis, DIGSA); test: as above; conditions: for phytotoxicity rating DIGSA: pre-emerge, 14 days after application, rating scale 0-100; for Pre-emerge Herbicidal Activity, phytotoxicity rating (0-100), DIGSA: rated 14 days after application, 0 = no damage, 100 = complete death
Procedure, shortened: as §2

[17] = test system: johnsongrass (Sorghum halepense, SORHA); test: as above; conditions: for phytotoxicity rating SORHA: pre-emerge, 14 days after application, rating scale 0-100; for Pre-emerge Herbicidal Activity, phytotoxicity rating (0-100), SORHA: rated 14 days after application, 0 = no damage, 100 = complete death
Procedure, shortened: as §2

[18] = test system: redroot pigweed (Amaranthus retroflexus, AMARE); test: as above; conditions: for phytotoxicity rating AMARE: pre-emerge, 14 days after application, rating scale 0-100; for Pre-emerge Herbicidal Activity, phytotoxicity rating (0-100), AMARE: rated 14 days after application, 0 = no damage, 100 = complete death
Procedure, shortened: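 Herbicidal damage is scored 0 (none) to 100 (complete plant death) two weeks after a simulated field spray. Rates span 15–1000 g ai/ha, delivered in acetone at 187 l/ha. For post-emergence treatments, plants have 2–3 leaves and the spray carries 0.25% v/v non-ionic surfactant.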

[19] = 250 g ai/ha, rating scale 0-100

COc1c(Cl)cc(F)c(-n2c(=O)cc(C(F)(F)F)n(C)c2=O)c1OC(=O)c1ccc2ccccc2c1 [Compound 16-7, 3-[4-chloro-6fluoro-3-methoxy-2-(2-naphthoyloxy)phenyl]-1-methyl-6-trifluoromethyl-2,4(1H, 3H)-pyrimidinedione]
Post-emerge Herbicidal Activity ECHCG (phytotoxicity rating) ([1]; 63 g ai/ha): 0
Post-emerge Herbicidal Activity ECHCG (phytotoxicity rating) ([1]; 250 g ai/ha): 0
Post-emerge Herbicidal Activity CHEAL (phytotoxicity rating) ([2]; 63 g ai/ha): 0
Post-emerge Herbicidal Activity CHEAL (phytotoxicity rating) ([2]; 250 g ai/ha): 0
Post-emerge Herbicidal Activity ABUTH (phytotoxicity rating) ([3]; 63 g ai/ha): 0
Post-emerge Herbicidal Activity ABUTH (phytotoxicity rating) ([3]; 250 g ai/ha): 0
Post-emerge Herbicidal Activity CASOB (phytotoxicity rating) ([4]; 63 g ai/ha): 0
Post-emerge Herbicidal Activity CASOB (phytotoxicity rating) ([4]; 250 g ai/ha): 30
Post-emerge Herbicidal Activity IPOHE (phytotoxicity rating) ([5]; 63 g ai/ha): 0
Post-emerge Herbicidal Activity IPOHE (phytotoxicity rating) ([5]; 250 g ai/ha): 30
Post-emerge Herbicidal Activity SETVI (phytotoxicity rating) ([6]; 63 g ai/ha): 0
Post-emerge Herbicidal Activity SETVI (phytotoxicity rating) ([6]; 250 g ai/ha): 0
Post-emerge Herbicidal Activity DIGSA (phytotoxicity rating) ([7]; 63 g ai/ha): 0
Post-emerge Herbicidal Activity DIGSA (phytotoxicity rating) ([7]; 250 g ai/ha): 0
Post-emerge Herbicidal Activity SORHA (phytotoxicity rating) ([8]; 63 g ai/ha): 0
Post-emerge Herbicidal Activity SORHA (phytotoxicity rating) ([8]; 250 g ai/ha): 0
Post-emerge Herbicidal Activity AMARE (phytotoxicity rating) ([9]; 63 g ai/ha, rating scale 0-100 (0 no damage, 100 complete death)): 0
Post-emerge Herbicidal Activity AMARE (phytotoxicity rating) [9, 19]: 0
phytotoxicity rating ECHCG ([10]; 63 g ai/ha): 0
phytotoxicity rating ECHCG ([10]; 250 g ai/ha): 0
phytotoxicity rating CHEAL ([11]; 63 g ai/ha): 0
phytotoxicity rating CHEAL ([11]; 250 g ai/ha): 0
phytotoxicity rating ABUTH ([12]; 63 g ai/ha): 0
phytotoxicity rating ABUTH ([12]; 250 g ai/ha): 0
phytotoxicity rating CASOB ([13]; 63 g ai/ha): 0
phytotoxicity rating CASOB ([13]; 250 g ai/ha): 0
phytotoxicity rating IPOHE ([14]; 63 g ai/ha): 0
phytotoxicity rating IPOHE ([14]; 250 g ai/ha): 0
phytotoxicity rating SETVI ([15]; 63 g ai/ha): 0
phytotoxicity rating SETVI ([15]; 250 g ai/ha): 0
phytotoxicity rating DIGSA ([16]; 63 g ai/ha): 0
phytotoxicity rating DIGSA ([16]; 250 g ai/ha): 0
phytotoxicity rating SORHA ([17]; 63 g ai/ha): 0
phytotoxicity rating SORHA ([17]; 250 g ai/ha): 0
phytotoxicity rating AMARE ([18]; 63 g ai/ha): 0
phytotoxicity rating AMARE ([18]; 250 g ai/ha): 50

Cn1c(C(F)(F)F)cc(=O)n(-c2c(F)cc(Cl)c(OC(F)F)c2NC(=O)c2ccc3ccccc3c2)c1=O [Compound 2-115, 3-[4-chloro-3-difluoromethoxy-6-fluoro-2-(2-naphthoylamino)phenyl]-1-methyl-6-trifluoromethyl-2,4(1H, 3H)-pyrimidinedione]
phytotoxicity rating ECHCG ([1]; 63 g ai/ha): 10
phytotoxicity rating ECHCG ([1]; 250 g ai/ha): 20
phytotoxicity rating CHEAL ([2]; 63 g ai/ha): 100
phytotoxicity rating CHEAL ([2]; 250 g ai/ha): 100
phytotoxicity rating ABUTH ([3]; 63 g ai/ha): 100
phytotoxicity rating ABUTH ([3]; 250 g ai/ha): 100
phytotoxicity rating CASOB ([4]; 63 g ai/ha): 90
phytotoxicity rating CASOB ([4]; 250 g ai/ha): 95
phytotoxicity rating IPOHE ([5]; 63 g ai/ha): 90
phytotoxicity rating IPOHE ([5]; 250 g ai/ha): 95
phytotoxicity rating SETVI ([6]; 63 g ai/ha): 0
phytotoxicity rating SETVI ([6]; 250 g ai/ha): 0
phytotoxicity rating DIGSA ([7]; 63 g ai/ha): 20
phytotoxicity rating DIGSA ([7]; 250 g ai/ha): 50
phytotoxicity rating SORHA ([8]; 63 g ai/ha): 0
phytotoxicity rating SORHA ([8]; 250 g ai/ha): 0
phytotoxicity rating AMARE ([9]; 63 g ai/ha, rating scale 0-100): 100
phytotoxicity rating AMARE [9, 19]: 100
Pre-emerge Herbicidal Activity, phytotoxicity rating (0-100), ECHCG ([10]; 63 g ai/ha): 80
Pre-emerge Herbicidal Activity, phytotoxicity rating (0-100), ECHCG ([10]; 125 g ai/ha): 95
Pre-emerge Herbicidal Activity, phytotoxicity rating (0-100), CHEAL ([11]; 63 g ai/ha): 100
Pre-emerge Herbicidal Activity, phytotoxicity rating (0-100), CHEAL ([11]; 125 g ai/ha): 100
Pre-emerge Herbicidal Activity, phytotoxicity rating (0-100), ABUTH ([12]; 63 g ai/ha): 100
Pre-emerge Herbicidal Activity, phytotoxicity rating (0-100), ABUTH ([12]; 125 g ai/ha): 100
Pre-emerge Herbicidal Activity, phytotoxicity rating (0-100), CASOB ([13]; 63 g ai/ha): 20
Pre-emerge Herbicidal Activity, phytotoxicity rating (0-100), CASOB ([13]; 125 g ai/ha): 80
Pre-emerge Herbicidal Activity, phytotoxicity rating (0-100), IPOHE ([14]; 63 g ai/ha): 0
Pre-emerge Herbicidal Activity, phytotoxicity rating (0-100), IPOHE ([14]; 125 g ai/ha): 90
Pre-emerge Herbicidal Activity, phytotoxicity rating (0-100), SETVI ([15]; 63 g ai/ha): 90
Pre-emerge Herbicidal Activity, phytotoxicity rating (0-100), SETVI ([15]; 125 g ai/ha): 99
Pre-emerge Herbicidal Activity, phytotoxicity rating (0-100), DIGSA ([16]; 63 g ai/ha): 90
Pre-emerge Herbicidal Activity, phytotoxicity rating (0-100), DIGSA ([16]; 125 g ai/ha): 100
Pre-emerge Herbicidal Activity, phytotoxicity rating (0-100), SORHA ([17]; 63 g ai/ha): 20
Pre-emerge Herbicidal Activity, phytotoxicity rating (0-100), SORHA ([17]; 125 g ai/ha): 30
Pre-emerge Herbicidal Activity, phytotoxicity rating (0-100), AMARE ([18]; 63 g ai/ha): 100
Pre-emerge Herbicidal Activity, phytotoxicity rating (0-100), AMARE ([18]; 125 g ai/ha): 100
